Assay results taken from US12264134B2 (Merck Sharp & Dohme LLC, priority 2018, dated 2025).

Key:
IDO1 [1] = target: T1, IDO1 (Homo sapiens, UniProt P14902); experiment: IDO1 Cellular Assay in HeLa Cells Stimulated with IFNγ; type: cell-based; details: read-out: HeLa Cell Potency, IC50
IDO1 [2] = target: T1, IDO1; experiment: IDO1 Human Whole blood Assay; type: cell-based; set-up: Human whole blood was drawn in sodium heparin coated tubes from healthy internal donors; from tissue; host or cells: human whole blood from healthy donors, stimulated with LPS and IFNγ; details: LPS and IFNγ stimulated, 18 h, read-out: Human Whole Blood Potency, IC50
Experimental: IDO1Human Whole blood Assay
Compounds to be tested were serially diluted in ten 3-fold steps in DMSO starting from 10 mM. 3 μL of compound dilutions or DMSO alone were then dispensed from the dilution plate into a polypropylene 96-well assay plate containing 97 μL of RPMI medium using an Echo 555 acoustic liquid handler (Labcyte). LPS and IFNγ was prepared in RPMI medium to a 10× of final conc. (1000 ng/mL), final concentration is 100 ng/mL.
Human whole blood was drawn in sodium heparin coated tubes from healthy internal donors. 240 μL of blood was transferred to each of the wells of a v-bottom 96 well plate. 30 μL of compound was transferred from intermediate dilution plate, and incubated for 15 min. 30 μL from stimulants was then transferred to blood and mixed thoroughly. Plate was covered with breathable membrane and incubated at 37° C. for overnight (18 h).
On day 2, isotope labeled standard solutions of kynurenine and tryptophan was made in water at 10× concentration and 30 μL was added to the blood at 3 μM final concentration. The assay plates were centrifuged at 300×G for 10 min with no brake to separate plasma from red blood cells. 60 μL of plasma samples was removed without disturbing red blood cells. Plasma was diluted with RPMI in 1:1 ratio and proteins were precipitated out with two volumes of Acetonitrile. The plates were centrifuged at 4000×G for 60 min. 20 μL of supernatant was carefully transferred to a 384 well plate containing 40 μL of 0.1% formic acid in water and analyzed by LC/MS/MS.
LC/MS/MS analyses were performed using Thermo Fisher's LX4-TSQ Quantum Ultra system. This system consists of four Agilent binary high-performance liquid chromatography (HPLC) pumps and a TSQ Quantum Ultra triple quadrupole MS/MS instrument. For each sample, 5 μL were injected onto an Atlantis T3 column (2.1 mm×150 mm, 3 μm particle size) from Waters. The mobile phase gradient pumped at 0.8 mL/min was used to elute the analytes from the column at 25° C. The elution started at 0% B increasing linearly to 25% B at 6.5 min, holding at 25% for 1 min, re-equilibrating to 10 min. Mobile phase A consisted of 0.1% formic acid in water. Mobile phase B consisted of 0.1% of formic acid in acetonitrile. Data were acquired in positive mode using a HESI interface. The operational parameters for the TSQ Quantum Ultra instrument were a spray voltage of 4000 V, capillary temperature of 380° C., vaporizer temperature 400° C., shealth gas 60 arbitrary units, Aux gas 20 arbitrary units, tube lens 85 and collision gas 1.2 mTorr. SRM chromatograms of kynurenine (Q1: 209.2>Q3:94.0) and internal standard (Q1: 215.3>Q3:98.2) were collected for 90 sec. The peak area was integrated by Xcalibur Quan software. The ratios between the kynurenine generated in the reaction and 2D6-Kynurenine spiked-in internal standard were used to generate percentage inhibition and IC50 values. Compounds were titrated and IC50's were calculated by 4 parameter sigmoidal curve fitting formula.

T1 sequence (P14902 whole entry): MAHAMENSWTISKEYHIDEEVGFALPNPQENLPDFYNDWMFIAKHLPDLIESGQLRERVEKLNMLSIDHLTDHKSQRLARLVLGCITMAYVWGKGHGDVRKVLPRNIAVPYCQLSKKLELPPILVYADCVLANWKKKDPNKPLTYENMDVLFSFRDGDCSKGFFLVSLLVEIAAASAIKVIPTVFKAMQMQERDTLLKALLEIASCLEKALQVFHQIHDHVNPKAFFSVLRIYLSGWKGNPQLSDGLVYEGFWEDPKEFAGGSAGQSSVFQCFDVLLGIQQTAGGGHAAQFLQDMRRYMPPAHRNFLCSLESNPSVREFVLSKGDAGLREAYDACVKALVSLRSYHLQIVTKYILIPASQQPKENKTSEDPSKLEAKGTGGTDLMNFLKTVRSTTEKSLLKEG

Cc1cccc(N2CCN(C(=O)Cn3nc(C(=O)N4CC[C@H](O)[C@H](C)C4)c4c3CCC4)CC2)c1C [Example 107, 1-[4-(2,3-dimethylphenyl)piperazin-1-yl]-2-{3-[(3R,4S)-4-hydroxy-3-methylpiperidine-1-carbonyl]-5,6-dihydrocyclopenta[c]pyrazol-1(4H)-yl}ethan-1-one]
IC50 (IDO1 [1]): 1.2 nM | IC50 (IDO1 [2]): 154 nM

Cc1cccc(N2CCN(C(=O)Cn3nc(C(=O)N4CC[C@H](O)[C@H](C)C4)c4c3C[C@H]3C[C@@H]43)CC2)c1C [Example 280, 1-[4-(2,3-dimethylphenyl)piperazin-1-yl]-2-{(3bR,4aR)-3-[(3R,4S)-4-hydroxy-3-methylpiperidine-1-carbonyl]-3b,4,4a,5-tetrahydro-1H-cyclopropa[3,4]cyclopenta[1,2-c]pyrazol-1-yl}ethan-1-one]
IC50 (IDO1 [1]): 0.79 nM | IC50 (IDO1 [2]): 127 nM

Cc1c(Cl)cccc1N1CCN(C(=O)Cn2nc(C(=O)N3CC[C@H](N)[C@@H](F)C3)c3c2C[C@H]2C[C@@H]32)C2(CC2)C1 [Example 315, 2-{(3bR,4aR)-3-[(3S,4S)-4-amino-3-fluoropiperidine-1-carbonyl]-3b,4,4a,5-tetrahydro-1H-cyclopropa[3,4]cyclopenta[1,2-c]pyrazol-1-yl}-1-[7-(3-chloro-2-methylphenyl)-4,7-diazaspiro[2.5]octan-4-yl]ethan-1-one]
IC50 (IDO1 [1]): 3.21 nM | IC50 (IDO1 [2]): 272 nM

Cc1cccc(N2CCN(C(=O)Cn3nc(C(=O)N4CCN(CC(N)=O)CC4)c4c3CCC4)CC2)c1C [Example 165, 2-[4-(1-{2-[4-(2,3-dimethylphenyl)piperazin-1-yl]-2-oxoethyl}-1,4,5,6-tetrahydrocyclopenta[c]pyrazole-3-carbonyl)piperazin-1-yl]acetamide]
IC50 (IDO1 [1]): 8.85 nM | IC50 (IDO1 [2]): 79 nM

Cc1c(F)ccc(N2CCN(C(=O)Cn3nc(C(=O)N4CCN(C(=O)CO)CC4)c4c3C[C@H]3C[C@@H]43)C3(CC3)C2)c1C [Example 319, 1-[7-(4-fluoro-2,3-dimethylphenyl)-4,7-diazaspiro[2.5]octan-4-yl]-2-{(3bR,4aR)-3-[4-(hydroxyacetyl)piperazine-1-carbonyl]-3b,4,4a,5-tetrahydro-1H-cyclopropa[3,4]cyclopenta[1,2-c]pyrazol-1-yl}ethan-1-one]
IC50 (IDO1 [1]): 1.31 nM | IC50 (IDO1 [2]): 452 nM

Cc1c(F)ccc(N2CCN(C(=O)Cn3nc(C(=O)N4CC[C@H](O)[C@H](F)C4)c4c3CCCC4)CC2)c1C [Example 465, 1-(4-(4-fluoro-2,3-dimethylphenyl)piperazin-1-yl)-2-(3-((3R,4S)-3-fluoro-4-hydroxypiperidine-1-carbonyl)-4,5,6,7-tetrahydro-1H-indazol-1-yl)ethanone]
IC50 (IDO1 [1]): 1.47 nM | IC50 (IDO1 [2]): 87 nM

Cc1c(Cl)cccc1N1CCN(C(=O)Cn2nc(C(=O)N3CCC(F)(CN)CC3)c3c2C[C@H]2C[C@@H]32)C2(CC2)C1 [Example 314, 2-{(3bR,4aR)-3-[4-(aminomethyl)-4-fluoropiperidine-1-carbonyl]-3b,4,4a,5-tetrahydro-1H-cyclopropa[3,4]cyclopenta[1,2-c]pyrazol-1-yl}-1-[7-(3-chloro-2-methylphenyl)-4,7-diazaspiro[2.5]octan-4-yl]ethan-1-one]
IC50 (IDO1 [1]): 4.88 nM | IC50 (IDO1 [2]): 846 nM

Cc1cccc(N2CCN(C(=O)Cn3nc(C(=O)N4CC[C@H](O)[C@H](F)C4)c4c3CCC4)CC2)c1C [Example 92, 1-[4-(2,3-dimethylphenyl)piperazin-1-yl]-2-{3-[(3R,4S)-3-fluoro-4-hydroxypiperidine-1-carbonyl]-5,6-dihydrocyclopenta[c]pyrazol-1(4H)-yl}ethan-1-one]
IC50 (IDO1 [1]): 10.8 nM | IC50 (IDO1 [2]): 256 nM

Cc1cccc(N2CCN(C(=O)Cn3nc(C(=O)N4CC[C@H](O)[C@@H](C)C4)c4c3CCC4)CC2)c1C [Example 109, 1-[4-(2,3-dimethylphenyl)piperazin-1-yl]-2-{3-[(3S,4S)-4-hydroxy-3-methylpiperidine-1-carbonyl]-5,6-dihydrocyclopenta[c]pyrazol-1(4H)-yl}ethan-1-one]
IC50 (IDO1 [1]): 1.86 nM | IC50 (IDO1 [2]): 399 nM

Cc1cccc(N2CCN(C(=O)Cn3nc(C(=O)N4CCC(O)CC4)c4c3CCC4)C3(CC3)C2)c1C [compound 392]
IC50 (IDO1 [1]): 3.21 nM | IC50 (IDO1 [2]): 2710 nM

Cc1cccc(N2CCN(C(=O)Cn3nc(C(=O)N4CCC5(CCOC5=O)CC4)c4c3CCC4)CC2)c1C [Example 146, 8-(1-{2-[4-(2,3-dimethylphenyl)piperazin-1-yl]-2-oxoethyl}-1,4,5,6-tetrahydrocyclopenta[c]pyrazole-3-carbonyl)-2-oxa-8-azaspiro[4.5]decan-1-one]
IC50 (IDO1 [1]): 2.39 nM | IC50 (IDO1 [2]): 150 nM

Cc1cccc(N2CCN(C(=O)Cn3nc(C(=O)N4CCCC(CO)C4)c4c3CCC4)CC2)c1C (stereo not shown) [Example 147, 1-[4-(2,3-dimethylphenyl)piperazin-1-yl]-2-{3-[3-(hydroxymethyl)piperidine-1-carbonyl]-5,6-dihydrocyclopenta[c]pyrazol-1(4H)-yl}ethan-1-one]
IC50 (IDO1 [1]): 2.84 nM | IC50 (IDO1 [2]): 607 nM

Cc1cccc(N2CCN(C(=O)Cn3nc(C(=O)N4CC[C@@H](O)C[C@@H]4C)c4c3CCC4)CC2)c1C [Example 125, 1-[4-(2,3-dimethylphenyl)piperazin-1-yl]-2-{3-[(2S,4R)-4-hydroxy-2-methylpiperidine-1-carbonyl]-5,6-dihydrocyclopenta[c]pyrazol-1(4H)-yl}ethan-1-one]
IC50 (IDO1 [1]): 3.29 nM | IC50 (IDO1 [2]): 444 nM

Cc1cccc(N2CCN(C(=O)Cn3nc(C(=O)N4C[C@@H](C)O[C@@H](C)C4)c4c3C3CC3C4)CC2)c1C (stereo partly drawn) [Example 449, 2-(3-((2R,6S)-2,6-dimethylmorpholine-4-carbonyl)-4,4a,5,5a-tetrahydro-1H-cyclopropa[4,5]cyclopenta[1,2-c]pyrazol-1-yl)-1-(4-(2,3-dimethylphenyl)piperazin-1-yl)ethanone]
IC50 (IDO1 [1]): 7.99 nM | IC50 (IDO1 [2]): 543 nM

Cc1cccc(N2CCN(C(=O)Cn3nc(C(=O)N4CCC(NC(=O)CO)CC4)c4c3CCCC4)CC2)c1C [Example 473]
IC50 (IDO1 [1]): 4.16 nM | IC50 (IDO1 [2]): 101 nM

Cc1cccc(N2CCN(C(=O)Cn3nc(C(=O)N4C[C@@H](C)O[C@@H](C)C4)c4c3CCC4)C3(CC3)C2)c1C [Example 391, 2-(3-((2S,6R)-2.6-dimethylmorpholine-4-carbonyl)-5,6-dihydrocyclopenta[c]pyrazol-1(4H)-yl)-1-(7-(2,3-dimethylphenyl)-4.7-diazaspiro[2.5]octan-4-yl)ethanone]
IC50 (IDO1 [1]): 5 nM | IC50 (IDO1 [2]): 1000 nM

Cc1cccc(N2CCN(C(=O)Cn3nc(C(=O)N4CC[C@@H](O)C[C@@H]4C)c4c3C[C@H]3C[C@@H]43)CC2)c1C [Example 290, 1-[4-(2,3-dimethylphenyl)piperazin-1-yl]-2-{(3bR,4aR)-3-[(2S,4R)-4-hydroxy-2-methylpiperidine-1-carbonyl]-3b,4,4a,5-tetrahydro-1H-cyclopropa[3,4]cyclopenta[1,2-c]pyrazol-1-yl}ethan-1-one]
IC50 (IDO1 [1]): 2.03 nM | IC50 (IDO1 [2]): 771 nM

Cc1cccc(N2CCN(C(=O)Cn3nc(C(=O)N4CCC5(CCOC5)CC4)c4c3CCC4)CC2)c1C [Example 93, 1-[4-(2,3-dimethylphenyl)piperazin-1-yl]-2-[3-(2-oxo-8-azaspiro[4.5]decane-8-carbonyl)-5,6-dihydrocyclopenta[c]pyrazol-1(4H)-yl]ethan-1-one]
IC50 (IDO1 [1]): 3.11 nM | IC50 (IDO1 [2]): 180 nM

Cc1c(F)ccc(N2CCN(C(=O)Cn3nc(C(=O)N4CCC(O)CC4)c4c3CCCC4)CC2)c1C [Example 451, 1-(4-(4-fluoro-2,3-dimethylphenyl)piperazin-1-yl)-2-(3-(4-hydroxypiperidine-1-carbonyl)-4,5,6,7-tetrahydro-1H-indazol-1-yl)ethanone]
IC50 (IDO1 [1]): 1.2 nM | IC50 (IDO1 [2]): 36 nM

Cc1cccc(N2CCN(C(=O)Cn3nc(C(=O)N4CCC5(CC4)COCC5O)c4c3CCC4)CC2)c1C (stereo not shown) [Example 181, 1-[4-(2,3-dimethylphenyl)piperazin-1-yl]-2-[3-(4-hydroxy-2-oxo-8-azaspiro[4.5]decane-8-carbonyl)-5,6-dihydrocyclopenta[c]pyrazol-1(4H)-yl]ethan-1-one]
IC50 (IDO1 [1]): 3.3 nM | IC50 (IDO1 [2]): 125 nM
